Experiments:
[1] = target: Glycogen synthase kinase-3 alpha (Homo sapiens) (UniProt P49840); assay: Inhibition of GSK3alpha (unknown origin) at 0.1 uM relative to control
[2] = target: Fibroblast growth factor receptor 3 (Homo sapiens) (UniProt P22607); assay: Inhibition of FGFR3 (unknown origin) at 0.1 uM relative to control
[3] = target: Epidermal growth factor receptor (Homo sapiens) (UniProt P00533); assay: Inhibition of EGFR (unknown origin) at 0.1 uM relative to control
[4] = target: Casein kinase II subunit alpha (Homo sapiens) (UniProt P68400); assay: Inhibition of CK2alpha1 (unknown origin) at 0.1 uM relative to control
Chain of Casein kinase II subunit alpha (Homo sapiens) (P68400 whole entry, looked up): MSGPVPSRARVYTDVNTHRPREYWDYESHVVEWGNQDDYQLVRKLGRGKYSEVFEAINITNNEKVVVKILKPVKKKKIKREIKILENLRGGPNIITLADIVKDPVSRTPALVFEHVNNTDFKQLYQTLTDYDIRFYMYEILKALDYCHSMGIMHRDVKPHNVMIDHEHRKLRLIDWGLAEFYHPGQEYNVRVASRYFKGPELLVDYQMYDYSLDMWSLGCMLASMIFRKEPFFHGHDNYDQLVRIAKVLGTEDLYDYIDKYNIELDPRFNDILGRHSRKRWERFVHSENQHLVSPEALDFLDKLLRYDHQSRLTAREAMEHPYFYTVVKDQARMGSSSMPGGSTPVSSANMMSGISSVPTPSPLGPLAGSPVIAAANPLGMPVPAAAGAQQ

[5] = target: Serine/threonine-protein kinase TAO1 (Homo sapiens) (UniProt Q7L7X3); assay: Inhibition of TAO1 (unknown origin) at 0.1 uM relative to control
[6] = target: Myosin light chain kinase 2, skeletal/cardiac muscle (Homo sapiens) (UniProt Q9H1R3); assay: Inhibition of MYLK2 (unknown origin) at 0.1 uM relative to control
Chain of Myosin light chain kinase 2, skeletal/cardiac muscle (Homo sapiens) (Q9H1R3 whole entry): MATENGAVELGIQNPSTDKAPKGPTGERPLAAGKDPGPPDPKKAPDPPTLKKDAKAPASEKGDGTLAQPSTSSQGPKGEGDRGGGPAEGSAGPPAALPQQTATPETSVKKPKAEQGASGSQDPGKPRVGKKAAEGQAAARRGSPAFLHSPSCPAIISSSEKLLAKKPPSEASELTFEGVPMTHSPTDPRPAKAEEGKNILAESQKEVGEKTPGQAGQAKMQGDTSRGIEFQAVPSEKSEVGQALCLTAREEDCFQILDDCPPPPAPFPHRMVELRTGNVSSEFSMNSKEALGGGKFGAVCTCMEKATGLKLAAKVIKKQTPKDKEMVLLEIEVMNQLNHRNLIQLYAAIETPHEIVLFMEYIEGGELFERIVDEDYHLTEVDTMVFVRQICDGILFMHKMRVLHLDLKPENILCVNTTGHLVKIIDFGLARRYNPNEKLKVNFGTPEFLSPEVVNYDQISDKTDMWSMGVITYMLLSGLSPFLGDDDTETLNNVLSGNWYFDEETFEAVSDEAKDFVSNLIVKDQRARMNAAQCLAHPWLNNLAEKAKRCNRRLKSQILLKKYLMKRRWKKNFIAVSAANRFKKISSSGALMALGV

[7] = target: Mitogen-activated protein kinase 3 (Homo sapiens) (UniProt P27361); assay: Inhibition of ERK1 (unknown origin) at 0.1 uM relative to control
[8] = target: Tyrosine-protein kinase Mer (Homo sapiens) (UniProt Q12866); assay: Inhibition of Mer (unknown origin) at 0.1 uM relative to control
[9] = target: Ribosomal protein S6 kinase alpha-3 (Homo sapiens) (UniProt P51812); assay: Inhibition of Rsk2 (unknown origin) at 0.1 uM relative to control
[10] = target: Dual specificity mitogen-activated protein kinase kinase 1 (Homo sapiens) (UniProt Q02750); assay: Inhibition of MEK1 (unknown origin) at 0.1 uM relative to control
[11] = target: Vascular endothelial growth factor receptor 2 (Homo sapiens) (UniProt P35968); assay: Inhibition of KDR (unknown origin) at 0.1 uM relative to control
[12] = target: Mitogen-activated protein kinase 9 (Homo sapiens) (UniProt P45984); assay: Inhibition of JNK2 (unknown origin) at 0.1 uM relative to control
Chain of Mitogen-activated protein kinase 9 (Homo sapiens) (P45984 whole entry, looked up): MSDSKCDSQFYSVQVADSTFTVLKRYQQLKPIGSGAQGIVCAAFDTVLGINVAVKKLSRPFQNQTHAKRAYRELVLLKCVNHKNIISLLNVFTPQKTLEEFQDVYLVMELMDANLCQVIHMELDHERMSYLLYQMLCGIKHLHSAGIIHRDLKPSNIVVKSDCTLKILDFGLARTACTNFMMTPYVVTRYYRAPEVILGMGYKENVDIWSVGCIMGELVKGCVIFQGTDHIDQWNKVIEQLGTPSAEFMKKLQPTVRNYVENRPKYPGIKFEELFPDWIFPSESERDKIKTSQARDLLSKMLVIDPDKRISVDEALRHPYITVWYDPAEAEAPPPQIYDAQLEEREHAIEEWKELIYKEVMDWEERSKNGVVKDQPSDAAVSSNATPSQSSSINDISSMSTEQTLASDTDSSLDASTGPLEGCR

[13] = target: Inhibitor of nuclear factor kappa-B kinase subunit beta (Homo sapiens) (UniProt O14920); assay: Inhibition of IKK beta (unknown origin) at 0.1 uM relative to control
Chain of Inhibitor of nuclear factor kappa-B kinase subunit beta (Homo sapiens) (O14920 whole entry): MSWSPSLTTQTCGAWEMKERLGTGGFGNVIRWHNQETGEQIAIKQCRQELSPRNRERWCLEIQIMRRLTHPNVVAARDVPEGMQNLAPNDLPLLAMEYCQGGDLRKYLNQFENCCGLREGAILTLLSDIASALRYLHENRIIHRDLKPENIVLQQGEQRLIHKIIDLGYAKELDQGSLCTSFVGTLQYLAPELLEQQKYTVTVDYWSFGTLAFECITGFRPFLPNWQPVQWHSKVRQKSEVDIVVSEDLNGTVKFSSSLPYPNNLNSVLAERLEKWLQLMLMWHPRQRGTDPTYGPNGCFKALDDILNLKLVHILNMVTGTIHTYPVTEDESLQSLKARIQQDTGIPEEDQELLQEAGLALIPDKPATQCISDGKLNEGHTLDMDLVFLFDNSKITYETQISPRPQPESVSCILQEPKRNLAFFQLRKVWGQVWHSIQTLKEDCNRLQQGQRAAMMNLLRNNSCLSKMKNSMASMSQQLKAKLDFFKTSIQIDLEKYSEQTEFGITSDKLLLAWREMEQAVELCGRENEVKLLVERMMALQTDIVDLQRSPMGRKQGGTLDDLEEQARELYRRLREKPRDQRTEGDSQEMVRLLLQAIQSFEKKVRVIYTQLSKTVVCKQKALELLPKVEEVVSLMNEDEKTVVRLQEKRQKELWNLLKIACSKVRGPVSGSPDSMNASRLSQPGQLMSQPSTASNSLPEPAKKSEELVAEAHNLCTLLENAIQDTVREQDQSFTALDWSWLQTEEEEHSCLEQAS

[14] = target: Tyrosine-protein kinase ABL1 (Homo sapiens) (UniProt P00519); assay: Inhibition of Abl (unknown origin) at 0.1 uM relative to control
[15] = target: Hepatocyte growth factor receptor (Homo sapiens) (UniProt P08581); assay: Inhibition of Met (unknown origin) at 0.1 uM relative to control
[16] = target: High affinity nerve growth factor receptor (Homo sapiens) (UniProt P04629); assay: Inhibition of TrkA (unknown origin) at 0.1 uM relative to control
[17] = target: Protein-tyrosine kinase 6 (Homo sapiens) (UniProt Q13882); assay: Inhibition of Brk (unknown origin) at 0.1 uM relative to control
[18] = target: Serine/threonine-protein kinase B-raf (Homo sapiens) (UniProt P15056); assay: Inhibition of B-Raf (unknown origin) at 0.1 uM relative to control
[19] = target: Serine/threonine-protein kinase PAK 6 (Homo sapiens, UniProt Q9NQU5); assay: Inhibition of PAK6 (unknown origin) at 0.1 uM relative to control
[20] = target: Activin receptor type-1B (Homo sapiens) (UniProt P36896); assay: Inhibition of ACVRB (unknown origin) at 0.1 uM relative to control
[21] = target: Mitogen-activated protein kinase 10 (Homo sapiens) (UniProt P53779); assay: Inhibition of JNK3 (unknown origin) at 0.1 uM relative to control
[22] = target: Serine/threonine-protein kinase 24 (Homo sapiens) (UniProt Q9Y6E0); assay: Inhibition of MST3 (unknown origin) at 0.1 uM relative to control
[23] = target: Serine/threonine-protein kinase Sgk3 (Homo sapiens) (UniProt Q96BR1); assay: Inhibition of SGK3 (unknown origin) at 0.1 uM relative to control
Chain of Serine/threonine-protein kinase Sgk3 (Homo sapiens) (Q96BR1 whole entry, canonical isoform): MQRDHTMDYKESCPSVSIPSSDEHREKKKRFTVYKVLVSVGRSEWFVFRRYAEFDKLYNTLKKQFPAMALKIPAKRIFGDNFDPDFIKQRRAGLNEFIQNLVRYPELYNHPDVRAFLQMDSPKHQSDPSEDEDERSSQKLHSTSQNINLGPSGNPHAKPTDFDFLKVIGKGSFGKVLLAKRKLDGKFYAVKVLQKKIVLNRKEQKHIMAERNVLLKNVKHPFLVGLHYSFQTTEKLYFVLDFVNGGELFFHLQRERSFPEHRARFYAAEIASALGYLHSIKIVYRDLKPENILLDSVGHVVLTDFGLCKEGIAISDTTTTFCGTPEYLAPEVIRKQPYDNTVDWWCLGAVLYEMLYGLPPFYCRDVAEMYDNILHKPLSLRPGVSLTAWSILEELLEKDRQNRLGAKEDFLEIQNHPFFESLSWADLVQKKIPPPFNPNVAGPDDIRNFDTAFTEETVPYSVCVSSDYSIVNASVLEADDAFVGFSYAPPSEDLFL

[24] = target: Casein kinase I isoform epsilon (Homo sapiens) (UniProt P49674); assay: Inhibition of CK1epsilon (unknown origin) at 0.1 uM relative to control
[25] = target: Mitogen-activated protein kinase kinase kinase 8 (Homo sapiens) (UniProt P41279); assay: Inhibition of Cot (unknown origin) at 0.1 uM relative to control
Chain of Mitogen-activated protein kinase kinase kinase 8 (Homo sapiens) (P41279 whole entry): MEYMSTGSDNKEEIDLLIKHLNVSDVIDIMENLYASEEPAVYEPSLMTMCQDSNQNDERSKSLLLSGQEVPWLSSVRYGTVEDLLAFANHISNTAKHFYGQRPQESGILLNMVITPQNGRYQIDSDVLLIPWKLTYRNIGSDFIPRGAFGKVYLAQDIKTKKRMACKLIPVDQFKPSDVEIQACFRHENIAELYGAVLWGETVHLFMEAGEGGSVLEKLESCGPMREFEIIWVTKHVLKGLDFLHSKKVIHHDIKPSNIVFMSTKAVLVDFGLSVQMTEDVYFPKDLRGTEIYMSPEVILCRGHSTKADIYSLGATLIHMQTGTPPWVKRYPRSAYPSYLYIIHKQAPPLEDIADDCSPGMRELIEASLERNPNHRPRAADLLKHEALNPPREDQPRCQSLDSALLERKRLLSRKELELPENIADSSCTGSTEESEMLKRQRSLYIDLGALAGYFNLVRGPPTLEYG

[26] = target: Fibroblast growth factor receptor 1 (Homo sapiens) (UniProt P11362); assay: Inhibition of FGFR1 (unknown origin) at 0.1 uM relative to control
[27] = target: Proto-oncogene tyrosine-protein kinase receptor Ret (Homo sapiens) (UniProt P07949); assay: Inhibition of Ret (unknown origin) at 0.1 uM relative to control
Chain of Proto-oncogene tyrosine-protein kinase receptor Ret (Homo sapiens) (P07949 whole entry): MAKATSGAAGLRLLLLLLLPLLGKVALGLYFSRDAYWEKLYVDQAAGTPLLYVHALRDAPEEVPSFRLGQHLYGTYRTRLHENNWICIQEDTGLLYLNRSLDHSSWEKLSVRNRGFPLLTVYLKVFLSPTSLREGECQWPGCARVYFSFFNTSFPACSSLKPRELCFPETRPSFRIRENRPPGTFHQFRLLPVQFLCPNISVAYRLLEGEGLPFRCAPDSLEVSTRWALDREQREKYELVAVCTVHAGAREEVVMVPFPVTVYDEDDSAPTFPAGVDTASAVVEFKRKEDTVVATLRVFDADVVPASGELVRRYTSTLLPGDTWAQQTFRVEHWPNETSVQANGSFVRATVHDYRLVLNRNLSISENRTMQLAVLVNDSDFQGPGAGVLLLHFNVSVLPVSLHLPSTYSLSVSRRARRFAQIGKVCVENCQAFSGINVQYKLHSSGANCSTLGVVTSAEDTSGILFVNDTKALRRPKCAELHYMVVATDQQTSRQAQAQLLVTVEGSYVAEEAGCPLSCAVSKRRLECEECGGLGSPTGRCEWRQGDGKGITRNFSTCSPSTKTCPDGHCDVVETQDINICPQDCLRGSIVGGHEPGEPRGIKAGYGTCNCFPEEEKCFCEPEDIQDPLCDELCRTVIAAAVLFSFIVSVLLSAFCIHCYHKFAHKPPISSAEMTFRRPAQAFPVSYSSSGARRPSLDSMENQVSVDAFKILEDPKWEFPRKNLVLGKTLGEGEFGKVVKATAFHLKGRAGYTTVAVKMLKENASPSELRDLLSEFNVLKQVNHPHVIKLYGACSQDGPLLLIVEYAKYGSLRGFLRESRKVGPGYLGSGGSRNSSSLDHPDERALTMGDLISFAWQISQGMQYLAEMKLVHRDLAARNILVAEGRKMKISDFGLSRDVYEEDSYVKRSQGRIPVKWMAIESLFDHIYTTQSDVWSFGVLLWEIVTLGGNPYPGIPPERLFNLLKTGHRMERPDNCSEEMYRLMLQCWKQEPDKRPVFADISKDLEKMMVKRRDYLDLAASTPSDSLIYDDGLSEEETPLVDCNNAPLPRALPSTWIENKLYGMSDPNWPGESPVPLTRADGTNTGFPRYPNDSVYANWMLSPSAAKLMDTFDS

[28] = target: Serine/threonine-protein kinase PAK 2 (Homo sapiens, UniProt Q13177); assay: Inhibition of PAK2 (unknown origin) at 0.1 uM relative to control
[29] = target: Serine/threonine-protein kinase Nek1 (Homo sapiens) (UniProt Q96PY6); assay: Inhibition of NEK1 (unknown origin) at 0.1 uM relative to control
[30] = target: Serine/threonine-protein kinase SIK2 (Homo sapiens) (UniProt Q9H0K1); assay: Inhibition of SIK2 (unknown origin) at 0.1 uM relative to control
[31] = target: Insulin receptor-related protein (Homo sapiens) (UniProt P14616); assay: Inhibition of IRR (unknown origin) at 0.1 uM relative to control
[32] = target: Phosphorylase b kinase gamma catalytic chain, skeletal muscle/heart isoform (Homo sapiens) (UniProt Q16816); assay: Inhibition of PhKgamma1 (unknown origin) at 0.1 uM relative to control
[33] = target: Glycogen synthase kinase-3 beta (Homo sapiens) (UniProt P49841); assay: Inhibition of GSK beta (unknown origin) at 0.1 uM relative to control
[34] = target: Serine/threonine-protein kinase MARK1 (Homo sapiens) (UniProt Q9P0L2); assay: Inhibition of MARK1 (unknown origin) at 0.1 uM relative to control
Chain of Serine/threonine-protein kinase MARK1 (Homo sapiens) (Q9P0L2 whole entry, looked up): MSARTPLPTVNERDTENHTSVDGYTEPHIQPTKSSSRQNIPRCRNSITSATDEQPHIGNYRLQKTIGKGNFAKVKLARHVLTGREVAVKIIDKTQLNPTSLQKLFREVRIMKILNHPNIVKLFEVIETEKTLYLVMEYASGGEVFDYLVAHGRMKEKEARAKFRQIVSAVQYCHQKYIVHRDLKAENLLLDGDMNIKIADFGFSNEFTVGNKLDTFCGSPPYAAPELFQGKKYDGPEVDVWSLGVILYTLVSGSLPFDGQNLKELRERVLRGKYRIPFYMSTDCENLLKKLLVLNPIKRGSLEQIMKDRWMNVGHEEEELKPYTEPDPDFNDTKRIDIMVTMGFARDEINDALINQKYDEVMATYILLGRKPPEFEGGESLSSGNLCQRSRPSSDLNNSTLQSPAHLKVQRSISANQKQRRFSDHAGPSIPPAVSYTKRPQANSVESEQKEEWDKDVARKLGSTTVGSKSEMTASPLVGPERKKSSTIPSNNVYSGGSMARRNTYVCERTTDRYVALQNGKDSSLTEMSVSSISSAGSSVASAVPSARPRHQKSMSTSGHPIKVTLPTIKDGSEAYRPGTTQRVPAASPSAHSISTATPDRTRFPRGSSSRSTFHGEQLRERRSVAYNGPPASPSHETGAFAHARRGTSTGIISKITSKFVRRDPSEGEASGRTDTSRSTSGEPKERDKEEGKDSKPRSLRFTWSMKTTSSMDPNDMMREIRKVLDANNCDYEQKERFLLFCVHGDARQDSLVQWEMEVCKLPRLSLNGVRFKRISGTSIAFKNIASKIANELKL

[35] = target: Homeodomain-interacting protein kinase 4 (Homo sapiens) (UniProt Q8NE63); assay: Inhibition of HIPK4 (unknown origin) at 0.1 uM relative to control
[36] = target: Macrophage-stimulating protein receptor (Homo sapiens) (UniProt Q04912); assay: Inhibition of Ron (unknown origin) at 0.1 uM relative to control
[37] = target: Ephrin type-B receptor 4 (Homo sapiens) (UniProt P54760); assay: Inhibition of EphB4 (unknown origin) at 0.1 uM relative to control
[38] = target: Serine/threonine-protein kinase Nek9 (Homo sapiens) (UniProt Q8TD19); assay: Inhibition of NEK9 (unknown origin) at 0.1 uM relative to control
[39] = target: Macrophage colony-stimulating factor 1 receptor (Homo sapiens) (UniProt P07333); assay: Inhibition of CSF1R (unknown origin) at 0.1 uM relative to control

SMILES	inhibition [1] [%]	inhibition [2] [%]	inhibition [3] [%]	inhibition [4] [%]	inhibition [5] [%]	inhibition [6] [%]	inhibition [7] [%]	inhibition [8] [%]	inhibition [9] [%]	inhibition [10] [%]	inhibition [11] [%]	inhibition [12] [%]	inhibition [13] [%]	inhibition [14] [%]	inhibition [15] [%]	inhibition [16] [%]	inhibition [17] [%]	inhibition [18] [%]	inhibition [19] [%]	inhibition [20] [%]	also measured
COCCNc1nc2ccc(C#CC3(O)CCCCC3)cc2n1-c1ccnc(N)n1	9.7	7.6	2.4	5.2	-0.2	-1.5	6.2	8.2	11.7	2.5	-3.1	-1	6.5	-0.2	2.6	9	10.2	8.2	49.9	-0.1	inhibition [21]: 2.7%; inhibition [22]: 5.9%; inhibition [23]: 9.3%; inhibition [24]: 7.3%; inhibition [25]: 2.8%; inhibition [26]: -4.5%; inhibition [27]: 4.4%; inhibition [28]: 14.9%; inhibition [29]: 0.3%; inhibition [30]: 0.8%; inhibition [31]: 7.4%; inhibition [32]: 12.5%; inhibition [33]: 4.6%; inhibition [34]: 11.3%; inhibition [35]: 5%; inhibition [36]: 0.3%; inhibition [37]: 5.3%; inhibition [38]: 1.6%; inhibition [39]: 2.5%
CN1CCc2cc(-c3cnc4[nH]cc(C(=O)c5ccccc5Cl)c4c3)ccc2C1	40.6	45.5	38	-3.5	91.5	25.5	12.3	53.8	6	23.8	72.2	14.8	3.3	99.5	13.3	51.6	92.5	49	21.8	79.3	inhibition [21]: 2.3%; inhibition [22]: 70.2%; inhibition [23]: 19.5%; inhibition [24]: 44%; inhibition [25]: 19.6%; inhibition [26]: 83%; inhibition [27]: 18.4%; inhibition [28]: 97.7%; inhibition [29]: 1.5%; inhibition [30]: 96.3%; inhibition [31]: 14.5%; inhibition [32]: 8.3%; inhibition [33]: 11%; inhibition [34]: 25.8%; inhibition [35]: 18.6%; inhibition [36]: 92.1%; inhibition [37]: 78.9%; inhibition [38]: -0.9%; inhibition [39]: 85.7%
